Reference: patent publication US11766429B1, “Nicotinic receptor antagonists and pioglitazone as therapeutic agents for Covid-19” (priority 2020, dated 2023)

How the values were obtained:
[1] = tested on: mouse hepatitis virus strain 4 (MHV4); experiment: MHV4 replication in infected IMG cells (GFP expression, N gene qPCR); assay type: cell-based; settings: 2 MOI MHV4, mecamylamine 1, 10 or 40 μM, 48 hours
[2] = in vivo; cited from earlier work
[3] = higher doses (30-90 mg/day); cited from earlier work
[4] = tested on: human α3β4, α4β2, α3β2 and α7 receptors; settings: cited from earlier work; for selectivity between nAChR types: neuronal vs muscle-type nAChRs; for mode of inhibition: neuronal nAChRs
[5] = tested on: inflammatory cytokines IL-6, IL-1β, and TNFα; experiment: SARS-CoV-2 induced cytokine gene expression in Calu3 cells; assay type: cell-based; settings: 0.1 MOI SARS CoV2, single agent: PG 20 μM, Mec 5 μM or Mec iso 5 μM, 48 hrs
[6] = tested on: inflammatory cytokine gene expression (IL1-β, IL-6, TNF-α); experiment: Inflammatory cytokine gene expression in MHV4 infected IMG cells; assay type: cell-based; settings: 2 MOI MHV4, mecamylamine 1, 10 or 40 μM, 48 hours

SMILES: CNC1(C)C2CCC(C2)C1(C)C (racemic) [mecamylamine]
- GFP expressing cells [1]: dose-dependent decrease
- MHV-4 N-gene expression [1]: dose-dependent decrease
- blood brain barrier penetration [2]: ability to cross the blood brain barrier
- side effects [3]: causes unfavorable side effects
- selectivity between nAChR types [4]: selective for neuronal nAChRs over muscle-type nAChRs
- inflammatory cytokines IL-6, IL-1β, and TNFα [5]: significant decrease
- cytokine gene transcription (qPCR) [6]: dose-dependent decrease

SMILES: CNC1(C)C2CCC(C2)C1(C)C (stereo not drawn) [R-(−)-mecamylamine]
- mode of inhibition [4]: noncompetitive inhibitors
- selectivity between nAChR types [4]: selective for neuronal nAChRs over muscle-type nAChRs

SMILES: CN[C@@]1(C)[C@@H]2CC[C@@H](C2)C1(C)C [S-(+)-mecamylamine]
- mode of inhibition [4]: noncompetitive inhibitors
- selectivity between nAChR types [4]: selective for neuronal nAChRs over muscle-type nAChRs
